Results published in US5563155A, “Individual stereosiomers of 7-[3-(aminoalkyl)-1-pyrrolidinyl]-quinolones and naphthyridones as antibacterial agents” (Warner-Lambert Company, priority 1995, dated 1996).
≈ marks a conversion by molar mass, not a printed value. Where a name gives a salt, the structure may show the parent alone. Read-outs that look alike come from different tables or passages of the source.

How the values were obtained:
[1] = system: Pseud. aeruginosa UI-18; assay: in vitro antibacterial activity, microtitration dilution (MIC), Pseud. aeruginosa UI-18; assay type: cell-based; settings: Pseudomonas aeruginosa, UI18, read-out: minimum inhibiting concentration (MIC)
Source text: (§1) The in vitro antibacterial activity, is obtained by the microtitration dilution method as described in Heifetz, et al., Antimicr. Agents & Chemother., 6, 124 (1974), which is incorporated herein by reference.
(§2) By use of the above methods, the following minimum inhibiting concentration values (MICs in μg/mL), PD50 's in mg/kg, no effect phototoxicity dose in mg/kg and the cytotoxicity IC50 in μg/mL were obtained for representative enantiomers of the invention and compounds of the prior art as shown in the table.

[2] = system: Strep. faecalis MGH-2; assay: in vitro antibacterial activity, microtitration dilution (MIC), Strep. faecalis MGH-2; assay type: cell-based; settings: Enterococcus faecalis, MGH2, read-out: minimum inhibiting concentration (MIC)
Source text: as §1, §2

[3] = system: Ent. cloacae MA2646; assay: in vitro antibacterial activity, microtitration dilution (MIC), Ent. cloacae MA2646; assay type: cell-based; settings: Enterobacter cloacae, read-out: minimum inhibiting concentration (MIC)
Source text: as §1, §2

[4] = system: Prot. rettgeri M 1771; assay: in vitro antibacterial activity, microtitration dilution (MIC), Prot. rettgeri M 1771; assay type: cell-based; settings: Providencia rettgeri, M1771, read-out: minimum inhibiting concentration (MIC)
Source text: as §1, §2

[5] = system: Strep. pyogenes C-203; assay: median protective dose in mice given lethal systemic infections, Strep. pyogenes C-203; assay type: in vivo; settings: Streptococcus pyogenes, single dose at time of challenge, read-out: median protective dose (PD50)
Method: The in vivo activity is obtained when the compounds are tested according to the procedure of Miller, et al (Proc. Soc. Exp. Biol. Med. 57, 261, 1944). The median protective dose (PD50) was determined in mice given lethal systemic infections. Single doses of compound were given at time of challenge.
as §2
The in vivo data as PD50 s are reported below the line of MICs for the same compound.

[6] = system: Strep. pheumoniae SV-1; assay: in vitro antibacterial activity, microtitration dilution (MIC), Strep. pneumoniae SV-1; assay type: cell-based; settings: Streptococcus pneumoniae, SV1, read-out: minimum inhibiting concentration (MIC)
Source text: as §1, §2

[7] = system: Strep. pyogenes C-203; assay: in vitro antibacterial activity, microtitration dilution (MIC), Strep. pyogenes C-203; assay type: cell-based; settings: Streptococcus pyogenes, C203, read-out: minimum inhibiting concentration (MIC)
Source text: as §1, §2

[8] = system: Staph. aureus H 228; assay: in vitro antibacterial activity, microtitration dilution (MIC), Staph. aureus H 228; assay type: cell-based; settings: Staphylococcus aureus, H228, read-out: minimum inhibiting concentration (MIC)
Source text: as §1, §2

[9] = system: Klebs. pneumoniae MGH-2; assay: in vitro antibacterial activity, microtitration dilution (MIC), Klebs. pneumoniae MGH-2; assay type: cell-based; settings: Klebsiella pneumoniae, MGH2, read-out: minimum inhibiting concentration (MIC)
Source text: as §1, §2

[10] = system: Staph. aureus UC-76; assay: in vitro antibacterial activity, microtitration dilution (MIC), Staph. aureus UC-76; assay type: cell-based; settings: Staphylococcus aureus, UC76, read-out: minimum inhibiting concentration (MIC)
Source text: as §1, §2

[11] = system: Esch. coli Vogel; assay: in vitro antibacterial activity, microtitration dilution (MIC), Esch. coli Vogel; assay type: cell-based; settings: Escherichia coli, read-out: minimum inhibiting concentration (MIC)
Source text: as §1, §2

| SMILES | MIC [1] [µg/mL] | MIC [2] [µg/mL] | MIC [3] [µg/mL] | MIC [4] [µg/mL] | ED50 ([5]; C203, PO) [mg/kg] | ED50 ([5]; C203, SC) [mg/kg] | MIC [6] [µg/mL] | MIC [7] [µg/mL] | MIC [8] [µg/mL] | MIC [9] [µg/mL] | MIC [10] [µg/mL] | MIC [11] [µg/mL] |
| --- | --- | --- | --- | --- | --- | --- | --- | --- | --- | --- | --- | --- |
| CN[C@@H](C)[C@@H]1CCN(c2cc3c(c(C)c2F)c(=O)c(C(=O)O)cn3C2CC2)C1 [Example 67, 3R,1S-1-cyclopropyl-6-fluoro-1,4-dihydro-5-methyl-7-[3-[1-(methylamino)ethyl]-1-pyrrolidinyl]-4-oxo-3-quinolinecarboxylic acid, monohydrochloride] | 3.1 | 0.1 | 0.4 | 1.6 | 29 | 3 | 0.013 | 0.025 | 0.05 | 0.8 | 0.013 | – |
| Cc1c(F)c(N2CC[C@@H]([C@@H](C)N)C2)cc2c1c(=O)c(C(=O)O)cn2-c1ccc(F)cc1F [Example 46, 3R,1R-7-[3-(1-aminoethyl)-1-pyrrolidinyl]-1-(2,4-difluorophenyl)-6-fluoro-1,4-dihydro-5-methyl-4-oxo-3-quinolinecarboxylic acid] | 1.6 (≈ 3.59 µM) | 0.1 (≈ 0.224 µM) | 0.2 (≈ 0.449 µM) | 0.4 (≈ 0.898 µM) | – | – | 0.013 (≈ 0.0292 µM) | 0.013 (≈ 0.0292 µM) | 0.025 (≈ 0.0561 µM) | 0.4 (≈ 0.898 µM) | 0.013 (≈ 0.0292 µM) | 0.2 (≈ 0.449 µM) |
| C[C@@H]([C@H]1CCN(c2nc3c(cc2F)c(=O)c(C(=O)O)cn3C2CC2)C1)N(C)C [Example 70, 3S,1S-1-cyclopropyl-7-[3-[1-(dimethylamino)ethyl]-1-pyrrolidinyl]-6-fluoro-1,4-dihydro-4-oxo-1,8-naphthyridine-3-carboxylic acid] | 12.5 (≈ 32.2 µM) | 0.8 (≈ 2.06 µM) | 0.4 (≈ 1.03 µM) | 3.1 (≈ 7.98 µM) | – | – | 0.2 (≈ 0.515 µM) | 0.4 (≈ 1.03 µM) | 0.4 (≈ 1.03 µM) | 0.8 (≈ 2.06 µM) | 0.2 (≈ 0.515 µM) | 0.4 (≈ 1.03 µM) |
| CCN[C@@H](C)[C@H]1CCN(c2nc3c(cc2F)c(=O)c(C(=O)O)cn3C2CC2)C1 [Example 80, 3S,1S-1-cyclopropyl-7-[3-[1-(ethylamino)ethyl]-1-pyrrolidinyl]-6-fluoro-1,4-dihydro-4-oxo-1,8-naphthyridine-3-carboxylic acid] | 3.1 (≈ 7.98 µM) | 0.2 (≈ 0.515 µM) | 0.2 (≈ 0.515 µM) | 1.6 (≈ 4.12 µM) | – | – | 0.1 (≈ 0.257 µM) | 0.4 (≈ 1.03 µM) | 0.2 (≈ 0.515 µM) | 0.4 (≈ 1.03 µM) | 0.1 (≈ 0.257 µM) | 0.2 (≈ 0.515 µM) |
| CCOc1c(N2CC[C@@H]([C@H](C)N)C2)c(F)cc2c(=O)c(C(=O)O)cn(C3CC3)c12 [Example 49, 3R,1S-7-[3-(1-aminoethyl)-1-pyrrolidinyl]-1-cyclopropyl-8-ethoxy-6-fluoro-1,4-dihydro-4-oxo-3-quinolinecarboxylic acid] | 1.6 (≈ 3.97 µM) | 0.025 (≈ 0.062 µM) | 0.2 (≈ 0.496 µM) | 0.2 (≈ 0.496 µM) | – | – | 0.006 (≈ 0.0149 µM) | 0.006 (≈ 0.0149 µM) | 0.013 (≈ 0.0322 µM) | 0.2 (≈ 0.496 µM) | ≤ 0.003 | 0.1 (≈ 0.248 µM) |
| CCN[C@@H](C)[C@@H]1CCN(c2cc3c(c(C)c2F)c(=O)c(C(=O)O)cn3-c2ccc(F)cc2F)C1 [Example 54, 3R,1S-7-[3-(1-N-ethylaminoethyl)-1-pyrrolidinyl]-1-(2,4-difluorophenyl)-6-fluoro-1,4-dihydro-5-methyl-4-oxo-3-quinolinecarboxylic acid] | 3.1 (≈ 6.55 µM) | 0.1 (≈ 0.211 µM) | 0.4 (≈ 0.845 µM) | 1.6 (≈ 3.38 µM) | – | – | 0.013 (≈ 0.0275 µM) | 0.013 (≈ 0.0275 µM) | 0.025 (≈ 0.0528 µM) | 0.8 (≈ 1.69 µM) | 0.013 (≈ 0.0275 µM) | 0.4 (≈ 0.845 µM) |
| CCN[C@@H](C)[C@@H]1CCN(c2cc3c(c(N)c2F)c(=O)c(C(=O)O)cn3C2CC2)C1 [Example 55, 3R,1S-5-amino-7-[3-(1-N-ethylaminoethyl)-1-pyrrolidinyl]-1-cyclopropyl-6-fluoro-1,4-dihydro-4-oxo-3-quinolinecarboxylic acid] | 1.6 (≈ 3.98 µM) | 0.05 (≈ 0.124 µM) | 0.1 (≈ 0.248 µM) | 0.8 (≈ 1.99 µM) | – | – | 0.013 (≈ 0.0323 µM) | 0.013 (≈ 0.0323 µM) | 0.05 (≈ 0.124 µM) | 0.2 (≈ 0.497 µM) | 0.025 (≈ 0.0621 µM) | 0.1 (≈ 0.248 µM) |
| CN[C@@H](C)[C@@H]1CCN(c2c(F)c(N)c3c(=O)c(C(=O)O)cn(C4CC4)c3c2OC)C1 [Example 56, 3R,1S-5-amino-1-cyclopropyl-6-fluoro-1,4-dihydro-8-methoxy-7-[3-(1-N-methylaminoethyl)-1-pyrrolidinyl]-4-oxo-3-quinolinecarboxylic acid] | 1.6 (≈ 3.82 µM) | 0.025 (≈ 0.0597 µM) | 0.2 (≈ 0.478 µM) | 0.4 (≈ 0.956 µM) | – | – | 0.006 (≈ 0.0143 µM) | 0.006 (≈ 0.0143 µM) | 0.013 (≈ 0.0311 µM) | 0.2 (≈ 0.478 µM) | 0.006 (≈ 0.0143 µM) | 0.1 (≈ 0.239 µM) |
| COc1c(N2CC[C@@H]([C@H](C)N)C2)c(F)c(N)c2c(=O)c(C(=O)O)cn(C3CC3)c12 [Example 59, 3R,1S-5-amino-7-[3-(1-aminoethyl)-1-pyrrolidinyl]-1-cyclopropyl-6-fluoro-1,4-dihydro-8-methoxy-4-oxo-3-quinolinecarboxylic acid] | 0.8 (≈ 1.98 µM) | 0.006 (≈ 0.0148 µM) | 0.05 (≈ 0.124 µM) | 0.1 (≈ 0.247 µM) | – | – | 0.003 (≈ 0.00742 µM) | 0.003 (≈ 0.00742 µM) | 0.006 (≈ 0.0148 µM) | 0.1 (≈ 0.247 µM) | 0.003 (≈ 0.00742 µM) | 0.05 (≈ 0.124 µM) |
| C[C@H](N)[C@@H]1CCN(c2c(F)c(N)c3c(=O)c(C(=O)O)cn(C4CC4)c3c2F)C1 [Example 58, 3R,1S-5-amino-7-[3-(1-aminoethyl)-1-pyrrolidinyl]-1-cyclopropyl-6,8-difluoro-1,4-dihydro-4-oxo-3-quinolinecarboxylic acid] | 0.4 (≈ 1.02 µM) | 0.003 (≈ 0.00765 µM) | 0.013 (≈ 0.0331 µM) | 0.025 (≈ 0.0637 µM) | – | – | 0.003 (≈ 0.00765 µM) | 0.003 (≈ 0.00765 µM) | 0.003 (≈ 0.00765 µM) | 0.013 (≈ 0.0331 µM) | 0.003 (≈ 0.00765 µM) | 0.013 (≈ 0.0331 µM) |
| C[C@H]([C@H]1CCN(c2nc3c(cc2F)c(=O)c(C(=O)O)cn3C2CC2)C1)N(C)C [Example 69, 3S,1R-1-cyclopropyl-7-[3-[1-(dimethylamino)ethyl]-1-pyrrolidinyl]-6-fluoro-1,4-dihydro-4-oxo-1,8-naphthyridine-3-carboxylic acid] | 1.6 (≈ 4.12 µM) | 0.025 (≈ 0.0644 µM) | 0.1 (≈ 0.257 µM) | 0.4 (≈ 1.03 µM) | – | – | 0.013 (≈ 0.0335 µM) | 0.025 (≈ 0.0644 µM) | 0.05 (≈ 0.129 µM) | 0.2 (≈ 0.515 µM) | 0.006 (≈ 0.0154 µM) | 0.1 (≈ 0.257 µM) |
| CN[C@H](C)[C@H]1CCN(c2nc3c(cc2F)c(=O)c(C(=O)O)cn3C2CC2)C1 [Example 23, 3S,1R-1-cyclopropyl-6-fluoro-7-[3-(1-N-methylaminoethyl)-1-pyrrolidinyl]-1,4-dihydro-4-oxo-1,8-naphthyridine-3-carboxylic acid] | 1.6 (≈ 4.27 µM) | 0.2 (≈ 0.534 µM) | 0.1 (≈ 0.267 µM) | 0.8 (≈ 2.14 µM) | – | – | 0.1 (≈ 0.267 µM) | 0.1 (≈ 0.267 µM) | 0.2 (≈ 0.534 µM) | 0.2 (≈ 0.534 µM) | 0.05 (≈ 0.134 µM) | 0.1 (≈ 0.267 µM) |
